Assay results from patent publication EP0545103A1, “Insecticidal, acaricidal and molluscicidal 1-(substituted) thioalkylpyrroles” (priority 1991, dated 1993).

How the values were obtained:
Format in all cases: in vivo
Parameters in all cases: key: 0: no effect; 10-25% kill; 26-35% kill; 36-45% kill; 46-55% kill; 56-65% kill; 66-75% kill; 76-85% kill; 86-99% kill; 9: 100% kill
[1] = tested on: Diabrotic undecimpunctata howardi, 3rd instar southern corn rootworm; test: Southern corn rootworm soil test; settings: mortality rating after 6 days
Method in brief: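 Soil test with ten 3rd instar larvae per jar, mortality read after 6 days and missing larvae counted as dead; scores on a rating scale. Doses were 1.25 and 0.25 mg a.i. per jar, corresponding to roughly 50 and 10 kg/ha, loaded on talc from acetone and mixed into moist soil with millet seed as food.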

[2] = tested on: Spodoptera eridania, 3rd instar larvae, southern armyworm; test: Southern armyworm 7-day residual test; settings: R designates Residual: 7-day residual foliage, concentration not given; for ARMYWORM Day 3 R: rating at 3 days; for ARMYWORM Day 5 R: rating at 5 days
Method in brief: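 Third-instar southern armyworm larvae were exposed to lima bean foliage that had been treated, then held 7 days under greenhouse lamps simulating bright sun for 14 h per day. Treatment solutions were diluted in water from a 10,000 ppm stock in 35% acetone. Results are scale ratings.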

[3] = tested on: Spodoptera eridania, 3rd instar larvae, southern armyworm; test: Southern armyworm systemic uptake (stem systemic) test; settings: cut stem in emulsion 3 days
[4] = tested on: Heliothis virescens, egg, tobacco budworm; test: Tobacco budworm egg test, dipped cotton leaf and eggs; settings: mortality rating after 3 days
Method in brief: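 Scoring is by mortality counts after 3 days, graded on a rating scale. Tobacco budworm eggs (6-30 h old) on cheesecloth and a young cotton leaf were each dipped about 3 s in the test suspension. Suspensions were made from a 10,000 ppm stock in 35% acetone/water with further water dilutions.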

[5] = tested on: Tetranychus urticae (OP-resistant strain), 2-spotted spider mite; test: 2-spotted spider mite test, dipped infested limabean plants
Method in brief: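 Compound dissolved at 10,000 ppm in 35% aqueous acetone, then water-diluted; limabean primary leaves carrying ~100 OP-resistant mites each are dipped 3 s and dried. Adult mortality read on one leaf after 2 days, eggs/newly emerged nymphs on another after 5 days, scored by rating scale.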

[6] = tested on: Spodoptera eridania, 3rd instar larvae, southern armyworm; test: Southern armyworm 3rd instar test, dipped limabean leaf; settings: for ARMYWORM Day 3: rating at 3 days; for ARMYWORM Day 5: rating at 5 days
Method in brief: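 Ten 3rd instar larvae fed on limabean leaves that had been dipped for 3 s in test solution and dried. Test solutions were diluted in water from a 10,000 ppm stock in 35% acetone/water. Ratings at days 3 and 5 covered death, feeding reduction and abnormal molting.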

[7] = 300 ppm, adult mites, rating scale 0-9
[8] = 300 ppm, mite eggs, rating scale 0-9
[9] = 300 ppm, mite nymphs, rating scale 0-9
[10] = 10 ppm, adult mites, rating scale 0-9
[11] = 10 ppm, mite eggs, rating scale 0-9
[12] = 10 ppm, mite nymphs, rating scale 0-9
[13] = 100 ppm, adult mites, rating scale 0-9
[14] = 100 ppm, mite eggs, rating scale 0-9
[15] = 100 ppm, mite nymphs, rating scale 0-9

Structure (SMILES) | SOUTHERN CORN ROOTWORM ([1]; 50 (ppm as headed)) | ARMYWORM Day 3 R [2] | ARMYWORM Day 5 R [2] | ARMYWORM Stem Sys [3] | TOBACCO BUDWORM Egg ([4]; 100 ppm) | TOBACCO BUDWORM Egg ([4]; 1000 ppm) | OP-RESISTANT MITES Adult [5, 7] | OP-RESISTANT MITES Egg [5, 8] | OP-RESISTANT MITES Nymph [5, 9] | ARMYWORM Day 3 ([6]; 10 ppm) | ARMYWORM Day 5 ([6]; 10 ppm) | ARMYWORM Day 3 ([6]; 100 ppm) | ARMYWORM Day 5 ([6]; 100 ppm) | ARMYWORM Day 3 ([6]; 1000 ppm) | ARMYWORM Day 5 ([6]; 1000 ppm) | other results
CC1(C)CN=C(SCn2c(-c3ccc(Cl)cc3)c(C#N)c(Br)c2C(F)(F)F)NC1 [Example 10] | 0 | 9 (100% kill) | 9 (100% kill) | 0 | 0 | 0 | 0 | 0 | 0 | 0 | 0 | 9 (100% kill) | 9 (100% kill) | 9 (100% kill) | 9 (100% kill) | 
CSCn1c(-c2ccc(Cl)cc2)c(C#N)c(Br)c1C(F)(F)F [Example 25] | 0 | 9 (100% kill) | 9 (100% kill) | 0 |  | 0 |  |  |  | 0 | 0 | 9 (100% kill) | 9 (100% kill) | 9 (100% kill) | 9 (100% kill) | SOUTHERN CORN ROOTWORM ([1]; 10 (ppm as headed)): 0; OP-RESISTANT MITES Adult ([5]; 300 ppm, mortality rating after 2 days): 7 (76-85% kill); OP-RESISTANT MITES Egg ([5]; 300 ppm, rating after 5 days): 0; OP-RESISTANT MITES Nymph ([5]; 300 ppm, rating after 5 days): 0
CN=C(NC)SCn1c(-c2ccc(Cl)cc2)c(C#N)c(Cl)c1C(F)(F)F [Example 2] | 8 (86-99% kill) | 9 (100% kill) | 9 (100% kill) | 0 | 0 | 0 |  |  |  | 9 (100% kill) | 9 (100% kill) | 9 (100% kill) | 9 (100% kill) | 9 (100% kill) | 9 (100% kill) | SOUTHERN CORN ROOTWORM ([1]; 1 (ppm as headed)): 0; SOUTHERN CORN ROOTWORM ([1]; 10 (ppm as headed)): 0; OP-RESISTANT MITES Egg ([5]; 10 ppm, rating after 5 days): 0; OP-RESISTANT MITES Egg ([5]; 100 ppm, rating after 5 days): 9 (100% kill); OP-RESISTANT MITES Egg ([5]; 300 ppm, rating after 5 days): 0
N#Cc1c(Br)c(C(F)(F)F)n(CSC2=NCCS2)c1-c1ccc(Cl)cc1 [Example 16] | 9 (100% kill) | 9 (100% kill) | 9 (100% kill) | 4 (46-55% kill) | 0 | 0 | 0 | 0 | 0 | 9 (100% kill) | 9 (100% kill) | 9 (100% kill) | 9 (100% kill) | 9 (100% kill) | 9 (100% kill) | 
N#Cc1c(Br)c(Br)n(CSC2=NCCCN2)c1Br [Example 13] | 0 | 0 | 7 (76-85% kill) | 7 (76-85% kill) |  | 0 | 5 (56-65% kill) | 0 | 0 |  |  | 0 |  | 9 (100% kill) |  | 
CN=C(NC)SCn1c(Cl)c(Cl)c(C#N)c1-c1ccc(Cl)c(Cl)c1 [Example 15] | 0 | 9 (100% kill) | 9 (100% kill) | 0 | 0 | 0 | 0 | 0 | 0 | 9 (100% kill) | 9 (100% kill) | 9 (100% kill) | 9 (100% kill) | 9 (100% kill) | 9 (100% kill) | 
FC(F)(F)c1c(Br)c(-c2ccc(Cl)c(Cl)c2)n(CSC2=NCCCN2)c1C(F)(F)F [Example 17] | 7 (76-85% kill) | 9 (100% kill) | 9 (100% kill) | 0 |  | 0 | 7 (76-85% kill) | 0 | 0 | 9 (100% kill) | 9 (100% kill) | 9 (100% kill) | 9 (100% kill) | 9 (100% kill) | 9 (100% kill) | OP-RESISTANT MITES Adult [5, 10]: 0; OP-RESISTANT MITES Egg [5, 11]: 0; OP-RESISTANT MITES Nymph [5, 12]: 0; OP-RESISTANT MITES Adult [5, 13]: 0; OP-RESISTANT MITES Egg [5, 14]: 7 (76-85% kill); OP-RESISTANT MITES Nymph [5, 15]: 0
CN=C(NC)SCn1c(Br)c(Br)c(C#N)c1Br [Example 14] | 0 | 0 | 5 (56-65% kill) | 0 |  | 0 | 0 | 0 | 0 | 0 | 0 | 9 (100% kill) | 9 (100% kill) | 9 (100% kill) | 9 (100% kill) | 
N#Cc1c(Br)c(Br)n(CSc2ccccc2)c1-c1ccc(C(F)(F)F)cc1 [Example 45, 4,5-dibromo-1-[(phenylthio)methyl]-2-(alpha, alpha,alpha-trifluoro-p-tolyl)pyrrole-3-carbonitrile] | 0 | 0 | 0 | 0 |  | 0 |  |  |  |  |  | 0 | 0 | 8 (86-99% kill) | 8 (86-99% kill) | 
CCOC(=S)SCn1c(Cl)c(Cl)c(C#N)c1-c1ccc(Cl)c(Cl)c1 [Example 28] | 0 | 9 (100% kill) | 9 (100% kill) | 0 | 0 | 0 |  | 0 | 0 |  |  |  |  |  |  | OP-RESISTANT MITES Egg [5, 11]: 0; OP-RESISTANT MITES Nymph [5, 12]: 3 (36-45% kill); OP-RESISTANT MITES Egg [5, 14]: 9 (100% kill)
CN(C)C(=S)SCn1c(Cl)c(C#N)c(Cl)c1-c1ccc(Cl)c(Cl)c1 [Example 36] | 0 | 9 (100% kill) | 9 (100% kill) | 0 |  | 0 | 7 (76-85% kill) | 0 | 0 |  |  |  |  |  |  | OP-RESISTANT MITES Adult [5, 10]: 0; OP-RESISTANT MITES Egg [5, 11]: 0; OP-RESISTANT MITES Nymph [5, 12]: 0; OP-RESISTANT MITES Adult [5, 13]: 0; OP-RESISTANT MITES Egg [5, 14]: 0; OP-RESISTANT MITES Nymph [5, 15]: 0
